# Results as given in patent publication EP0799834A1, “Modified nucleotides” (priority 1996, dated 1997).
# Experiments:
# Format in all cases: biochemical
# [1] = target: T1, HIV-1RT (Human immunodeficiency virus type 1 group M subtype B, UniProt P04585); test: Chain elongation: addition of modified nucleotide to primer by reverse transcriptase (gel autoradiography); design: key to addition of modified nucleotide to the primer: +: slow addition of modified nucleotide to the primer; ++: good addition of modified nucleotide to the primer; -: no addition of modified nucleotide to the primer; conditions: HIV-1RT 0.13 units; modified nucleotide 100 µM; dATP, dGTP, dCTP 1.0 µM each; 37°C
# T1 construct: HIV-1RT
# Procedure: (§1) The triposphates of the modified nucleotides are synthesized as described by Kovács & Ötvös (Tetrahedron Lett. (1988), 29, […]) • 5' P^32-[…]-OH SEQ ID NO:1 • 3' HO-[…]-OH SEQ ID NP:2
# (§2) A solution of template (3.0 pmol of SEQ ID NO:2) and radioactive primer (0.8 pmol of SEQ ID NO:1) in 72 µl buffer (20 mM Tris-HCl, pH 7.5; 6 mM MgCl2; 40 mM KCl; 0.5 mM DTT) are heated to 80°C and allowed to cool down to 25°C within one hour. To this solution polymerase (see table 1) is added. Aliquots of thereof are mixed with 4 µl of a solution comprising dATP, dGTP, dCTP and the modified nucleotide (see table 1), resulting in a final concentration of dATP, dGTP and dCTP as provided in table 1 and a final concentration of the modified nucleotide of 100 µM. The solutions are incubated at 37°C and the elongation reaction is stopped by addition of 5 µl of a solution of formamide comprising 5 mM EDTA (pH 8.0).
# (§3) 3-5 µl of these solutions are subjected to a polyacrylamide gel (19 % acrylamide, 7 M urea). After electrophoresis the gel is transferred to a filter paper, dried and analyzed using autoradiography (see table 2).
# [2] = target: T7 sequenase version 2 (Escherichia phage T7, UniProt P00581, DEL118-145); test: Chain elongation: addition of modified nucleotide to primer by polymerase (gel autoradiography); design: key: +: slow addition of modified nucleotide to the primer; ++: good addition of modified nucleotide to the primer; -: no addition of modified nucleotide to the primer; conditions: T7 sequenase version 2 0.13 units; modified nucleotide 100 µM; dATP, dGTP, dCTP 2.5 µM each; 37°C
# Procedure: as §1, §2, §3
# [3] = target: T2, Klenow (Escherichia coli, UniProt P00582); test: as above; design: key: +: slow addition of modified nucleotide to the primer; ++: good addition of modified nucleotide to the primer; -: no addition of modified nucleotide to the primer; conditions: Klenow 1.5 units; modified nucleotide 100 µM; dATP, dGTP, dCTP 0.5 µM each; 37°C
# T2 construct: Klenow
# Procedure: as §1, §2, §3
# [4] = target: T3, M-MuLV RT (Moloney murine leukemia virus, UniProt P03355); test: Chain elongation: addition of modified nucleotide to primer by reverse transcriptase (gel autoradiography); design: key: +: slow addition of modified nucleotide to the primer; ++: good addition of modified nucleotide to the primer; -: no addition of modified nucleotide to the primer; conditions: M-MuLV RT 9 units; modified nucleotide 100 µM; dATP, dGTP, dCTP 15.0 µM each; 37°C
# T3 construct: M-MuLV RT
# Procedure: as §1, §2, §3
# [5] = system: AMV RT; test: as above; design: key: +: slow addition of modified nucleotide to the primer; ++: good addition of modified nucleotide to the primer; -: no addition of modified nucleotide to the primer; conditions: AMV RT 2.0 units; modified nucleotide 100 µM; dATP, dGTP, dCTP 0.5 µM each; 37°C
# Procedure: as §1, §2, §3
# T2 sequence (P00582 324-928): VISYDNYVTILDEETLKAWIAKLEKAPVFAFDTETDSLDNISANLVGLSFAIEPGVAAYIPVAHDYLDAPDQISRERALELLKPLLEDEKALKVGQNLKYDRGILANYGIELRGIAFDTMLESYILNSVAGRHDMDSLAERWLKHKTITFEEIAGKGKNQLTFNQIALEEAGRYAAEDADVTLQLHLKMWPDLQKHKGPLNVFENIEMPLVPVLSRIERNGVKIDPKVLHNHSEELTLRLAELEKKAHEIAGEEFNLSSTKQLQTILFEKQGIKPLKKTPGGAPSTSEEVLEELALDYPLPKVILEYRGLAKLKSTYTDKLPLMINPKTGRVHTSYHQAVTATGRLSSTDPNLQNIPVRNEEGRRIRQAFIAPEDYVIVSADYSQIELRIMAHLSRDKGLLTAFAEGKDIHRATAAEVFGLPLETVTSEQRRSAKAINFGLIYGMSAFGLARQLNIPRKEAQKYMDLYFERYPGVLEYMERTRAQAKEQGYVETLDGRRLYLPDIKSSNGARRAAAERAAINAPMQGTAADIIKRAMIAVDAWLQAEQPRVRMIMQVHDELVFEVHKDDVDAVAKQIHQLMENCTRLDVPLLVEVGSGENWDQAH
# Sequence of T7 sequenase version 2 (P00581 other isoform, or with tags, fused parts or gaps DEL118-145): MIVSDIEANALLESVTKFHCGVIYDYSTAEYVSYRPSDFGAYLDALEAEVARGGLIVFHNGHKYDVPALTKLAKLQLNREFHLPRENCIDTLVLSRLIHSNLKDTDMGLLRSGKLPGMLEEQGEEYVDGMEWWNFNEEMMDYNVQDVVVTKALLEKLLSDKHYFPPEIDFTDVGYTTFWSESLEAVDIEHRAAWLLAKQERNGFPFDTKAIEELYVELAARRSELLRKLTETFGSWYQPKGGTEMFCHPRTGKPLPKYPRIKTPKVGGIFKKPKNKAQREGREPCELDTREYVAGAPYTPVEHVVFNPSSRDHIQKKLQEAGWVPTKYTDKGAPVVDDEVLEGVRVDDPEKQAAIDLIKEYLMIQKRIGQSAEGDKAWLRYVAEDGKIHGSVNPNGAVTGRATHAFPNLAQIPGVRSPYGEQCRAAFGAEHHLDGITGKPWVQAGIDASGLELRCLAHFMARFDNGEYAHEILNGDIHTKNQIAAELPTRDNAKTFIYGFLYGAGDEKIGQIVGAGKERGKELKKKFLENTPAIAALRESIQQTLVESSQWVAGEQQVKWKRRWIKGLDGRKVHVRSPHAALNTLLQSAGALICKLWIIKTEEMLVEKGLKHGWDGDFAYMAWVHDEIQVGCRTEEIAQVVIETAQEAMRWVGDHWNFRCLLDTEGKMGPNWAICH
# Sequence of T7 sequenase version 2 (P0AA25 2-109, stated change not applied, further chain): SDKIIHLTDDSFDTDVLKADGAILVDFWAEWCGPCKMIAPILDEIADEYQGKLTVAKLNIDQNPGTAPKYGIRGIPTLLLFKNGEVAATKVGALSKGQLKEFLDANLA
SMILES,addition of modified nucleotide to the primer [1],addition of modified nucleotide to the primer [2],addition of modified nucleotide to the primer [3],addition of modified nucleotide to the primer [4],addition of modified nucleotide to the primer [5],elongation after addition of modified nucleotide [1]
CCC(=O)[C@]1(COP(=O)(O)OP(=O)(O)OP(=O)(O)O)O[C@@H](n2cc(C)c(=O)[nH]c2=O)C[C@@H]1O [R^1=CH3CH2],++,++,+,++,++,
Cc1cn([C@H]2C[C@H](O)[C@](COP(=O)(O)OP(=O)(O)OP(=O)(O)O)(C(=O)c3ccccc3)O2)c(=O)[nH]c1=O [R^1=C6H5],++,-,-,-,++,
CC(=O)[C@]1(COP(=O)(O)OP(=O)(O)OP(=O)(O)O)O[C@@H](n2cc(C)c(=O)[nH]c2=O)C[C@@H]1O [R^1=CH3],++,++,++,++,++,elongation
Cc1cn([C@H]2C[C@H](O)[C@](COP(=O)(O)OP(=O)(O)OP(=O)(O)O)(C(=O)C(C)(C)C)O2)c(=O)[nH]c1=O [R^1=t-butyl],-,-,-,-,-,
